Assay results: ChEMBL document CHEMBL1129256, “Potent thrombin inhibitors that probe the S1 subsite: tripeptide transition state analogues based on a heterocycle-activated carbonyl group” (J Med Chem, 1996)
pKi: −log10 of the molar value.

Key:
Bos taurus = species: Bos taurus; assay: Inhibition of trypsin, selectivity with respect to thrombin
Prothrombin = Prothrombin (Homo sapiens, UniProt P00734); assay: Inhibition of human alpha-thrombin.
Serine protease 1 = target: T1, Serine protease 1 (Bos taurus, UniProt P00760); assay: Inhibition of bovine trypsin
T1 sequence (P00760 whole entry): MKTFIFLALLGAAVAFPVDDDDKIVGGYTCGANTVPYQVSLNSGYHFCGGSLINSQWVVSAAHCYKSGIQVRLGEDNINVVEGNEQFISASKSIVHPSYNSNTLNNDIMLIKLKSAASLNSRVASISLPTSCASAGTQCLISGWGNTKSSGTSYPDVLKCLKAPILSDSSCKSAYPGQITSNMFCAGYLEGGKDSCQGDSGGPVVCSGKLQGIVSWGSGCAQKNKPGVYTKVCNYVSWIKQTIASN

[1] = Compound was tested for inhibition of tissue-type plasminogen activator (tissue plasminogen activator), selectivity with respect to thrombin
[2] = Compound was tested for inhibition of streptokinase (SK). selectivity with respect to thrombin
[3] = Compound was tested for inhibition of activated protein C. selectivity with respect to thrombin
[4] = Compound was tested for inhibition of plasmin, selectivity with respect to thrombin

Row | Selectivity (Bos taurus) | pKi (Prothrombin) | pKi (Serine protease 1) | SMILES | also measured
1 | 88 | – | – | CN[C@H](Cc1ccccc1)C(=O)N1CCC[C@H]1C(=O)N[C@@H](CCCNC(=N)N)C(=O)c1nccn1C | –
2 | – | 7.92 | 7.42 | CN[C@H](Cc1ccccc1)C(=O)N1CCC[C@H]1C(=O)N[C@@H](CCCNC(=N)N)C(=O)c1nc2ccccc2[nH]1 | –
3 | 0.6 | 7.82 | 8.09 | CN[C@H](Cc1ccccc1)C(=O)N1CCC[C@H]1C(=O)N[C@@H](CCCN=C(N)N)C(=O)C1=NC(=O)C2C=CC=CC2=N1 (some centres undefined) | –
4 | – | 7.30 | 5.36 | CN[C@H](Cc1ccccc1)C(=O)N1CCC[C@H]1C(=O)N[C@@H](CCCN=C(N)N)C(=O)c1nccn1C | –
5 | 1.3 | – | – | CN[C@H](Cc1ccccc1)C(=O)N1CCC[C@H]1C(=O)N[C@@H](CCCN=C(N)N)C(=O)c1nc2c(s1)CCCC2 | –
6 | – | 4.80 | < 3.82 | Cc1ccc(S(=O)(=O)N/C(N)=N\CCC[C@@H](NC(=O)[C@H]2CCCN2C(=O)[C@H](Cc2ccccc2)N(C)C(=O)OCc2ccccc2)C(O)c2nc3ccccc3s2)cc1 (some centres undefined) | –
7 | 0.8 | 7.07 | 7.14 | CN[C@H](Cc1ccccc1)C(=O)N1CCC[C@H]1C(=O)N[C@@H](CCCNC(=N)N)C(=O)c1ccccn1 | –
8 | 0.4 | – | – | CN[C@H](Cc1ccccc1)C(=O)N1CCC[C@H]1C(=O)N[C@@H](CCCN=C(N)N)C(=O)c1nccs1 | –
9 | 0.39 | – | – | CN[C@H](Cc1ccccc1)C(=O)N1CCC[C@H]1C(=O)N[C@H](C=O)CCCNC(=N)N | Selectivity [1]: 130; Selectivity [2]: 170; Selectivity [3]: 72; Selectivity [4]: 33
10 | – | 8.44 | 8.80 | CN[C@H](Cc1ccccc1)C(=O)N1CCC[C@H]1C(=O)N[C@@H](CCCNC(=N)N)C(=O)c1nccs1 | –
11 | 0.8 | 8.42 | 8.54 | CN[C@H](Cc1ccccc1)C(=O)N1CCC[C@H]1C(=O)N[C@@H](CCCN=C(N)N)C(=O)c1nc2ccccc2o1 | –
12 | 16 | 9.72 | – | CN[C@H](Cc1ccccc1)C(=O)N1CCC[C@H]1C(=O)N[C@@H](CCCN=C(N)N)C(=O)c1nc2ccccc2s1 | Selectivity [1]: 3300; Selectivity [2]: 6300; Selectivity [3]: 19000; Selectivity [4]: 12000
13 | – | 8.47 | 8.36 | CN[C@H](Cc1ccccc1)C(=O)N1CCC[C@H]1C(=O)N[C@@H](CCCNC(=N)N)C(=O)c1nc2c(s1)CCCC2 | –
14 | – | 5.28 | < 3.82 | Cc1ccc(S(=O)(=O)NC(=N)NCCC[C@H](NC(=O)[C@@H]2CCCN2C(=O)[C@@H](Cc2ccccc2)N(C)C(=O)OCc2ccccc2)C(O)c2nc3ccccc3s2)cc1 (some centres undefined) | –
15 | 3.2 | – | – | CN[C@H](Cc1ccccc1)C(=O)N1CCC[C@H]1C(=O)N[C@@H](CCCN=C(N)N)C(=O)c1nc2ccccc2[nH]1 | –

Row | SMILES | Selectivity (Bos taurus) | pKi (Prothrombin) | pKi (Serine protease 1) | also measured
16 | CN[C@H](Cc1ccccc1)C(=O)N1CCC[C@H]1C(=O)N[C@@H](CCCNC(=N)N)C(=O)c1nc2ccccc2n1C | 36 | 8.09 | 6.54 | –
